Experimental data published in patent publication US20090202428A1, “Use of Dtbz for Imaging Endocrine Pancreas and Beta Cell Mass In Type 1 Diabetes” (priority 2005, published 2009).

Assays:
endocrine pancreas = test: serial PET imaging with [11C]DTBZ in the spontaneously diabetic BB-DP rat model; format: in vivo; conditions: series of ten BB-DP rats, compared with IPGTT
Description: Blood samples were collected from the rat tail vein. The blood glucose (BG) levels of the rats were monitored daily using an Accu-Check blood glucose monitoring system (Roche Diagnostics, Somerville, N.J.). […] After baseline BG measurements, animals received an intraperitoneal injection of 1 g glucose/kg body wt. BG concentrations were measured again 5, 10, 15, 30, 60, and 120 min later. Animals were considered diabetic when four consecutive BG values were above 300 mg/dL and had abnormal IPGTT responses. Animals were imaged at baseline before the development of diabetes at day 45.
PET scans were performed serially on the study subject at approximately day 50 and then every two weeks until the animals developed stable diabetes. Prior to imaging, the animals were anesthetized with intrapertioneal injections of ketamine and xylazine. After a whole-body transmission scan had been obtained (used to perform attenuation correction of the emission data), the radioligand was taken up in a sterile saline vehicle and 200-300 μCi of [11C] DTBZ was administered in a bolus injection via the penile vein. PET scans of the animals were acquired dynamically to 60 min post injection on a Concorde microPET-R4 (CTI Molecular Imaging, Knoxville, Tenn., USA). The scanner provided a 100×80 mm field of view with a reconstructed resolution of 2.25 mm in the central 40 mm of the field of view. […]

[1] = tested on: islet membranes (purified human islets); test: binding of [3H]DTBZ to total membrane fractions from purified human islets
Description: (§1) Previous studies, at both protein and nucleic acid levels, have shown the underlying physiochemical basis for this functional similarity (Atouf, et al, 1997, Expression of neuronal traits in pancreatic beta cells. Implication of neuron-restrictive silencing factor/repressor element silencing transcription factor, a neuron-restrictive silencer, J Biol Chem 272:1929-1934, Bernal-Mizrachi, et al, 2003, Gene expression profiling in islet biology and diabetes research, Diabetes Metab Res Rev 19:32-42, and […] al, 1996, Differentiation and growth of pancreatic beta cells, Diabetes Metab 22:223-228). The inventors own gene expression mapping studies led them to focus on one such shared gene product, VMAT2, vesicular monoamine transporter type 2, expressed by β-cells, but absent from the exocrine pancreas and a variety of-the other abdominal organs ([…], et al, 2004, Identification of tissue-restricted transcripts in human islets, Endocrinology 145:4513-4521). A specific ligand for VMAT2, dihydrotetrabenazine (DTBZ) is already in clinical use for positron emission tomography (PET) imaging of central nervous system disorders (Vander Borght, et al, 1995, In vivo imaging of the brain vesicular monoamine transporter, J Nucl Med 36:2252-2260). The inventors studied the binding of [3H]DTBZ to total membranes fractions prepared from purified human islets and purified exocrine pancreas tissue.

[2] = tested on: membranes from the exocrine pancreas; test: binding of [3H]DTBZ to total membrane fractions from purified exocrine pancreas tissue; parameters: species or system human
Description: as §1

[3] = target: T1, VMAT2 expressed by β-cells of the endocrine pancreas (Rattus norvegicus, UniProt Q01827); test: PET imaging with [11C]DTBZ of normal and STZ induced diabetic Lewis rats; format: in vivo
T1 construct: The inventors next targeted VMAT2 expressed by β-cells of the endocrine pancreas with [11C]; DTBZ; from tissue; host or cells: pancreas (beta cells of the islets) of living Lewis rats, normal and STZ-induced diabetic
Description: Specific activities of carbon-11 labeled radiotracers were >2000 mCi/μmol at the time of injection.
STZ solution was prepared fresh by dissolving it in 0.1 M citrate buffer (pH 5.5) and terminally sterile filtered. Age and weight-matched control rats were injected with citrate buffer alone.
PET scans were performed on four normal and three diabetic adult rat subjects. Prior to imaging, the animals were anesthetized with intraperitoneal injections of ketamine and xylazine. After a whole-body transmission scan had been obtained (used to perform attenuation correction of the emission data), the radioligand was taken up in a sterile saline vehicle and 200-300 μCi of [11C] DTBZ was administered in a bolus injection via the penile vein. PET scans of the animals were acquired dynamically to 60 min postinjection on a Concorde microPET-R4 (CTI Molecular Imaging, Knoxville, Tenn., USA). The scanner provided a 100×80 mm field of view with a reconstructed resolution of 2.25 mm in the central 40 mm of the field of view. PET data were processed using attenuation correction matrix obtained by transmission scans and images were reconstructed using Fourier re-binning, followed by two-dimensional, filtered back projection. […]

VMAT2 = conditions: previous studies (Scherman et al.); cited from earlier work

T1 sequence (Q01827 whole entry): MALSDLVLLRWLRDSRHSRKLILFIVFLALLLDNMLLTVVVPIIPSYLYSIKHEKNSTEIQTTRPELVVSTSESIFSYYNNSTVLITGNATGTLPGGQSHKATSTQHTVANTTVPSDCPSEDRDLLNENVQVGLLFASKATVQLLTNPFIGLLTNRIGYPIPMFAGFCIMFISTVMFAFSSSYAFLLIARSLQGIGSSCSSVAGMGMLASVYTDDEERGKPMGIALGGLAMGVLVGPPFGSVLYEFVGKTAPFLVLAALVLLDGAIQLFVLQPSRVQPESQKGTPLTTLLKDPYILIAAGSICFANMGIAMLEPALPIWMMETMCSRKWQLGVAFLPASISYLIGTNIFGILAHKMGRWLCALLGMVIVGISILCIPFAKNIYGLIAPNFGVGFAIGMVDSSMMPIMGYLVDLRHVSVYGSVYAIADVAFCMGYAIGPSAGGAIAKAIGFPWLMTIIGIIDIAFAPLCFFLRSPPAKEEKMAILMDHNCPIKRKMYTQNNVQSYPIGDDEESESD

Structure (SMILES): COc1cc2c(cc1O[11CH3])CCN1CC(CC(C)C)C(O)CC21 (stereo not drawn) [[11C]DTBZ, [11C] dihydrotetrabenazine]
- reduction of [11C]DTBZ uptake that resulted in signs of glucose intolerance and hyperglycemia (endocrine pancreas): approximately 50%

Structure (SMILES): COc1cc2c(cc1OC)[C@H]1C[C@@H](O)[C@H](CC(C)C)CN1CC2 [[3H]DTBZ]
- binding of [3H]DTBZ to islet membranes [1]: specifically bound
- binding of [3H]DTBZ to membranes from the exocrine pancreas [2]: not

Structure (SMILES): COc1cc2c(cc1OC)[C@H]1C[C@@H](O)[C@H](CC(C)C)CN1CC2 [DTBZ, dihydrotetrabenazine]
- DTBZ uptake in gastric and splenic regions of the pancreas compared to the head of the organ ([3]; normal rat pancreata, PET): higher
- time post-injection up to which pancreatic DTBZ uptake increased monotonically ([3]; normal rat, 60 min imaging period, from 1 minute): about 50 minutes
- target specificity of DTBZ (VMAT2): specifically targets VMAT2
